Laboratory results published in PMC7915026, “Sulfaguanidine Hybrid with Some New Pyridine-2-One Derivatives: Design, Synthesis, and Antimicrobial Activity against Multidrug-Resistant Bacteria as Dual DNA Gyrase and DHFR Inhibitors” (Antibiotics, 2021).
Converted amounts (≈) assume the structure as drawn.

How the values were obtained:
MDRB strains = test: MIC and MBC, ranges over the MDRB panel; assay type: cell-based; settings: four MDRB strains
Source text: Norfloxacin was used as a positive control for the multidrug resistance study.
The experiment was repeating for three-times.

[1] = tested on: CD4+ and CD8+ T lymphocytes; test: In vivo T lymphocyte subsets from peripheral blood, flow cytometry; settings: mice
P. aeruginosa ATCC 27853 = test: MIC and MBC determination; assay type: cell-based; settings: Pseudomonas aeruginosa, ATCC27853, P. aeruginosa

For `COc1ccc(/C=C(\C#N)C(=O)Nc2ccc(S(=O)(=O)NC(=N)N)cc2)cc1O` [Compound 2d, N-(4-(N-Carbamimidoylsulfamoyl)phenyl)-2-cyano-3-(3-hydroxy-4-methoxyphenyl) acryl-amide], the MBC range (MDRB strains) was 9.38 to 18.77 µM, the MIC range (MDRB strains) was 4.69 to 9.38 µM and the “T cells CD4+” value [1] was 79.61 ± 0.3%. For the same molecule, the “T cells CD8+” value [1] was 27.05 ± 0.5%, the MBC (P. aeruginosa ATCC 27853; read-out: MBC) was 25.5 ± 0.65 µM (≈ 10.6 µg/mL) and the MIC (P. aeruginosa ATCC 27853; read-out: MIC) was 13.4 ± 0.25 µM (≈ 5.57 µg/mL).
